The values below come from PubChem BioAssay AID330 (DTP/NCI, 2004).

This test has as its system P388 leukemia ip, CD2F1 mice, survival T/C. The experiment in a line: NCI In Vivo Anticancer Drug Screen. Data for tumor model P388 Leukemia (intraperitoneal) in CD2F1 (CDF1) mice. The note with it: endpoint: median survival time, higher = longer survival. The procedure, abridged: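 Mice carrying the transplanted tumor received test compound or vehicle. Survival was recorded in each group, and the value is the treated-group measurement divided by that of the vehicle-treated control group.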

[1] abbreviates: dose: 200.0 mg/kg/injection, schedule: Q04DX003 (ip), vehicle: saline with Tween-80.
[2] abbreviates: dose: 50.0 mg/kg/injection, schedule: Q01DX009 (ip), vehicle: saline with Tween-80.
[3] abbreviates: dose: 100.0 mg/kg/injection, schedule: Q01DX009 (ip), vehicle: saline with Tween-80.
Setting [4] is: dose: 200.0 mg/kg/injection, schedule: Q01DX009 (ip), vehicle: saline with Tween-80.
Setting [5] is: dose: 50.0 mg/kg/injection, schedule: Q01DX005 (ip), vehicle: saline with Tween-80.
The mark [6] stands for this setting: dose: 100.0 mg/kg/injection, schedule: Q01DX005 (ip), vehicle: saline with Tween-80.
[7] abbreviates: dose: 200.0 mg/kg/injection, schedule: Q01DX005 (ip), vehicle: saline with Tween-80.
Setting [8] is: dose: 60.0 mg/kg/injection, schedule: Q01DX005 (ip), vehicle: saline with Tween-80.
Setting [9] is: dose: 120.0 mg/kg/injection, schedule: Q01DX005 (ip), vehicle: saline with Tween-80.
[10] abbreviates: dose: 240.0 mg/kg/injection, schedule: Q01DX005 (ip), vehicle: saline with Tween-80.
The mark [11] stands for this setting: dose: 25.0 mg/kg/injection, schedule: Q04DX002 (ip), vehicle: saline.
Where [12] appears, read: dose: 50.0 mg/kg/injection, schedule: Q04DX002 (ip), vehicle: saline.
Where [13] appears, read: dose: 100.0 mg/kg/injection, schedule: Q01DX005 (ip), vehicle: Klucel (hydroxypropylcellulose) (HPC).
Where [14] appears, read: dose: 12.5 mg/kg/injection, schedule: Q04DX002 (ip), vehicle: saline.

Values joined by “and” are separate entries in the source; they are usually repeats but may differ in a detail not shown here. Equal values may be shown once. Inconclusive results and toxic doses are left out.

For the molecule `CSC1(CCC#N)C(=O)Nc2ccccc21` (stereo not drawn), the T/C reads like this: under setting [1], 102 % of control; (dose: 400.0 mg/kg/injection, schedule: Q04DX003 (ip), vehicle: saline with Tween-80) 108 % of control.

For `COc1cc(C(=O)NN=C2c3ccccc3-c3ccccc32)cc(OC)c1OC`, the T/C under setting [2] is 93 % of control, the T/C under setting [3] was 88 % of control and the T/C under setting [4] is 87 % of control.

Consider `CC1c2ccccc2OS(=O)N1C` (stereo not drawn), for which the T/C is, setting by setting: (dose: 50.0 mg/kg/injection, schedule: Q01DX009 (ip), vehicle: Klucel (hydroxypropylcellulose) (HPC)) 104 % of control; (dose: 100.0 mg/kg/injection, schedule: Q01DX009 (ip), vehicle: Klucel (hydroxypropylcellulose) (HPC)) 110 % of control; (dose: 200.0 mg/kg/injection, schedule: Q01DX009 (ip), vehicle: Klucel (hydroxypropylcellulose) (HPC)) 111 % of control.

Consider `COC(=O)c1nnn(-c2ccc(Cl)cc2C)c1C(=O)c1ccc(OC)cc1`, for which the T/C is, setting by setting: (dose: 60.0 mg/kg/injection, schedule: Q01DX005 (ip), vehicle: Klucel + Tween-80) 102 % of control; (dose: 120.0 mg/kg/injection, schedule: Q01DX005 (ip), vehicle: Klucel + Tween-80) 108 % of control; (dose: 240.0 mg/kg/injection, schedule: Q01DX005 (ip), vehicle: Klucel + Tween-80) 93 % of control.

With `OCCN(CCCN(CCO)C(=S)S)C(=S)S.[Cu+2]`, the T/C was 98 % of control (dose: 12.5 mg/kg/injection, schedule: Q01DX005 (ip), vehicle: saline + Tween-80 + alcohol); 99 % of control (dose: 25.0 mg/kg/injection, schedule: Q01DX005 (ip), vehicle: saline + Tween-80 + alcohol); 102 % of control and 104 % of control (dose: 50.0 mg/kg/injection, schedule: Q01DX005 (ip), vehicle: saline + Tween-80 + alcohol).

For the molecule `O=C(NS(=O)C1C=CCCC1)OC1CCCCC1c1ccccc1` (stereo not drawn), the T/C is, setting by setting: under setting [5], 99 % of control; under setting [6], 100 % of control; under setting [7], 105 % of control.

Regarding `c1cc2ccc3ccc[n+]4c3c2[n+](c1)CC4`, the T/C (dose: 50.0 mg/kg/injection, schedule: Q01DX009 (ip), vehicle: saline) was 103 % of control.

As for `CN=C(N)N/N=C(/C)c1ccc2c(c1)Cc1cc(I)ccc1-2`, the T/C reads like this: (dose: 25.0 mg/kg/injection, schedule: Q04DX002 (ip), vehicle: saline with Tween-80) 106 % of control; (dose: 50.0 mg/kg/injection, schedule: Q04DX002 (ip), vehicle: saline with Tween-80) 100 % of control; (dose: 100.0 mg/kg/injection, schedule: Q04DX002 (ip), vehicle: saline with Tween-80) 107 % of control.

Consider `CC(C)(NC(=O)OC12CC3CC(CC(C3)C1)C2)C(=O)O`, for which the T/C is 109 % of control under setting [8], 104 % of control under setting [9] and 98 % of control under setting [10].

With `COC1CCC(Sc2cccc[n+]2CC(C)=O)CC1OC` (stereo not drawn), the T/C reads like this: (dose: 12.5 mg/kg/injection, schedule: Q01DX005 (ip), vehicle: saline with Tween-80) 100 % of control; (dose: 25.0 mg/kg/injection, schedule: Q01DX005 (ip), vehicle: saline with Tween-80) 99 % of control; under setting [5], 98 % of control and 101 % of control; under setting [6], 102 % of control.

`CCCCCCCCCCCCCCCCCC(=O)NN`: the T/C was 94 % of control (dose: 100.0 mg/kg/injection, schedule: Q04DX003 (ip), vehicle: saline with Tween-80) and 87 % of control under setting [1].

Regarding `CCOc1c(N=Nc2ccc(Cl)cc2)c(C)nn1C(N)=S`, the T/C was 112 % of control (dose: 60.0 mg/kg/injection, schedule: Q01DX005 (ip), vehicle: Klucel (hydroxypropylcellulose) (HPC)); 112 % of control (dose: 120.0 mg/kg/injection, schedule: Q01DX005 (ip), vehicle: Klucel (hydroxypropylcellulose) (HPC)); 112 % of control (dose: 240.0 mg/kg/injection, schedule: Q01DX005 (ip), vehicle: Klucel (hydroxypropylcellulose) (HPC)).

For the molecule `O=c1oc(-c2ccc(Cl)cc2Cl)nc2cc(Cl)ccc12`, the T/C runs as follows: under setting [8], 104 % of control; under setting [9], 112 % of control.

Regarding `CN(C)C(=O)c1cc(C(=O)N(C)C)cc2cccc-2c1`, the T/C under setting [11] was 102 % of control; the T/C under setting [12] is 98 % of control; the T/C (dose: 100.0 mg/kg/injection, schedule: Q04DX002 (ip), vehicle: saline) was 99 % of control and 97 % of control.

With `COCC12CCC(OC)C34C5CC6(O)C(OC)CC(OC(C)=O)(C5C6OC(=O)c5ccccc5)C(C(OC)C13)C4N(C)C2` (stereo not drawn), the T/C is, setting by setting: (dose: 0.31 mg/kg/injection, schedule: Q01DX009 (ip), vehicle: saline) 106 % of control; (dose: 0.62 mg/kg/injection, schedule: Q01DX009 (ip), vehicle: saline) 101 % of control; (dose: 1.25 mg/kg/injection, schedule: Q01DX009 (ip), vehicle: saline) 110 % of control; (dose: 2.5 mg/kg/injection, schedule: Q01DX009 (ip), vehicle: saline) 102 % of control; (dose: 5.0 mg/kg/injection, schedule: Q01DX009 (ip), vehicle: saline) 108 % of control.

On to `NNC(=O)c1oc2ccccc2c1CN(CCO)CCO`, for which the T/C is 102 % of control under setting [5], 98 % of control under setting [6] and 107 % of control under setting [7].

In the case of `CN(CCC(C#N)c1ccccc1)Cc1ccccc1` (stereo not drawn), the T/C is 92 % of control (dose: 50.0 mg/kg/injection, schedule: Q01DX005 (ip), vehicle: Klucel (hydroxypropylcellulose) (HPC)) and 101 % of control under setting [13].

For `CCCCCCCCCCCCCC[N+]1(CC)CCCCCC1`, under “dose: 0.04 mg/kg/injection, schedule: Q01DX009 (ip), vehicle: saline”, the T/C is 100 % of control and 96 % of control.

As to `O=C(O)C(=O)O.O=C(O)C(=O)O.[Co+2].[NH-]CCC[NH-]`, the T/C under setting [14] was 99 % of control.

In the case of `N#Cn1c2ccccc2c(=N)c2ccccc21`, the T/C is, setting by setting: under setting [8], 103 % of control; under setting [9], 102 % of control.

As to `CC(C)NC(C)C(C)c1ccccc1` (stereo not drawn), the T/C was 99 % of control (dose: 25.0 mg/kg/injection, schedule: Q04DX003 (ip), vehicle: saline); 94 % of control (dose: 50.0 mg/kg/injection, schedule: Q01DX001 (ip), vehicle: saline); 100 % of control (dose: 50.0 mg/kg/injection, schedule: Q04DX003 (ip), vehicle: saline); 96 % of control (dose: 100.0 mg/kg/injection, schedule: Q01DX001 (ip), vehicle: saline); 93 % of control (dose: 100.0 mg/kg/injection, schedule: Q04DX003 (ip), vehicle: saline).

Consider `N#C/C(=C/c1ccccc1)c1ccccc1`, for which the T/C was 87 % of control under setting [2]; 88 % of control under setting [3]; 88 % of control under setting [4]; 102 % of control (dose: 400.0 mg/kg/injection, schedule: Q01DX009 (ip), vehicle: saline with Tween-80).

`O=c1oc2ccc3ccccc3c2cc1-n1nnc2ccccc21`: the T/C is, setting by setting: under setting [8], 91 % of control; under setting [9], 90 % of control.

As to `O=C1OC(Oc2ccccc2OC2OC(=O)c3ccccc32)c2ccccc21` (stereo not drawn), the T/C reads like this: under setting [8], 98 % of control; under setting [9], 106 % of control; under setting [10], 100 % of control.

Turning to `O=S(=O)(O)Cc1ccc(CS(=O)(=O)O)cc1`, the T/C under setting [14] was 93 % of control, the T/C under setting [11] is 102 % of control and the T/C under setting [12] was 98 % of control.

On to `C=[CH][Sn]([CH]=C)([CH2]C)[CH2]C`, for which the T/C was 102 % of control (dose: 50.0 mg/kg/injection, schedule: Q01DX005 (ip), vehicle: saline); 104 % of control (dose: 100.0 mg/kg/injection, schedule: Q01DX005 (ip), vehicle: saline); 114 % of control (dose: 200.0 mg/kg/injection, schedule: Q01DX005 (ip), vehicle: saline).

On to `COC1C(c2cc3ccccc3oc2=O)OC2OC(C)(C)OC21` (stereo not drawn), for which the T/C is 97 % of control (dose: 5.0 mg/kg/injection, schedule: Q01DX001 (ip), vehicle: Klucel (hydroxypropylcellulose) (HPC)); 101 % of control (dose: 10.0 mg/kg/injection, schedule: Q01DX001 (ip), vehicle: Klucel (hydroxypropylcellulose) (HPC)); 100 % of control (dose: 20.0 mg/kg/injection, schedule: Q01DX001 (ip), vehicle: Klucel (hydroxypropylcellulose) (HPC)).

Turning to `COC(=O)c1ccc(N=NN(C)CN=[N+]=[N-])cc1`, the T/C by setting is: (dose: 12.5 mg/kg/injection, schedule: Q01DX005 (ip), vehicle: Klucel (hydroxypropylcellulose) (HPC)) 106 % of control; (dose: 25.0 mg/kg/injection, schedule: Q01DX005 (ip), vehicle: Klucel (hydroxypropylcellulose) (HPC)) 124 % of control; under setting [13], 160 % of control and 172 % of control.
